# Data published in patent publication US20080145383A1, “Method for Solubilizing Peptide Mixtures” (priority 2004, published 2008).
# Peptide text beside a SMILES is read from it.
# How the values were obtained:
# [1] = Solubility of the single peptides in water and DMSO; assay type: physicochemical; details: single peptide
# Method: In the scope of the present invention peptides are characterised by their solubility. Peptides which are soluble in an aqueous solution less than 100 μg/ml are considered hydrophobic. On the other hand hydrophilic peptides dissolve in a buffered aqueous solution in concentration over 100 μg/ml. Hydrophilic peptides may further be divided into cationic (>20% basic amino acids including lysine, arginine, histidine), anionic (>20% acidic amino acids including aspartic acid, glutamic acid) and hydroxyl-rich peptides (>30% —OH containing amino acids like serine, threonine, tyrosine).
# The peptide mixture contains 6 peptides (see table 1), which show a broad range of solubility. […] Peptides 1236, 1240, and 1242 can sequentially be dissolved in water, provided that the final pH is adjusted to pH 8.5. At lower pH a gel is formed presumably due to charge interactions and/or hydrogen bond formation. This gel can not be sterile filtered as it blocks the filter immediately. However, upon addition of poly-L-arginine (pR) to the aqueous solution of the three peptides a precipitate forms that makes sterile filtration of the solution impossible.
# As with the formulation of example 1, for the manufacturing of a suspension formulation it is necessary first to dissolve peptides 83 and 84 in an aqueous buffer solution and peptides 87, 89, and 1426 in DMSO. After sterile filtration the solutions can be combined to form the final suspension.
# [2] = suspension formulation stored at room temperature (Figure C)
Compound,solubility in DMSO [1],solubility in water [1],solubility in water ([1]; listed as Ipep 84),degradation [2]
CC[C@H](C)[C@H](NC(=O)[C@H](CCC(N)=O)NC(=O)CNC(=O)CNC(=O)CNC(=O)[C@@H]1CCCN1C(=O)[C@H](Cc1ccccc1)NC(=O)[C@@H](N)CCCCN)C(=O)N[C@H](C(=O)NCC(=O)NCC(=O)N[C@H](C(=O)N[C@@H](Cc1ccc(O)cc1)C(=O)N[C@@H](CC(C)C)C(=O)N[C@@H](CC(C)C)C(=O)N1CCC[C@H]1C(=O)N[C@@H](CCCNC(=N)N)C(=O)N[C@@H](CCCNC(=N)N)C(=O)NCC(=O)N1CCC[C@H]1C(=O)N[C@@H](CCCNC(=N)N)C(=O)N[C@@H](CC(C)C)C(=O)O)C(C)C)C(C)C [Peptide 83] (H-KFPGGGQIVGGVYLLPRRGPRL-OH; N-terminus and C-terminus assumed),soluble,soluble,,
CC(C)C[C@H](NC(=O)[C@@H](NC(=O)[C@H](CC(C)C)NC(=O)[C@@H](NC(=O)[C@H](CCCCN)NC(=O)[C@H](Cc1ccc(O)cc1)NC(=O)CN)C(C)C)C(C)C)C(=O)N[C@@H](CC(N)=O)C(=O)N1CCC[C@H]1C(=O)N[C@@H](CO)C(=O)N[C@H](C(=O)N[C@@H](C)C(=O)N[C@@H](C)C(=O)N[C@H](C(=O)O)[C@@H](C)O)C(C)C [Peptide 84],soluble,soluble,water soluble,
CC[C@H](C)[C@H](NC(=O)[C@H](Cc1ccc(O)cc1)NC(=O)CNC(=O)[C@H](CCSC)NC(=O)[C@H](CC(C)C)NC(=O)[C@@H](N)CC(=O)O)C(=O)N1CCC[C@H]1C(=O)N[C@@H](C)C(=O)N[C@H](C(=O)O)C(C)C [Peptide 87] (H-DLMGYIPAV-OH; N-terminus and C-terminus assumed),dissolve easily in DMSO,poorly water soluble,,
CC[C@H](C)[C@H](N)C(=O)N[C@@H](CC(=O)O)C(=O)N[C@@H](CCC(=O)O)C(=O)N[C@@H](CC(C)C)C(=O)N[C@@H](CCCCN)C(=O)N[C@H](C(=O)N[C@@H](CC(N)=O)C(=O)N[C@@H](CO)C(=O)N[C@@H](CO)C(=O)N[C@@H](CC(C)C)C(=O)N[C@@H](CC(C)C)C(=O)N[C@H](C(=O)N[C@@H](CO)C(=O)N[C@H](C(=O)N[C@@H](CC(C)C)C(=O)N[C@H](C(=O)N[C@@H](Cc1ccc(O)cc1)C(=O)N[C@@H](Cc1c[nH]cn1)C(=O)N[C@H](C(=O)N[C@H](C(=O)O)C(C)C)C(C)C)[C@@H](C)O)[C@@H](C)CC)[C@@H](C)O)[C@@H](C)O [Peptide 1235] (H-IDELKTNSSLLTSILTYHVV-OH; N-terminus and C-terminus assumed),only dissolve in DMSO,hydrophobic,,
CC[C@H](C)[C@H](NC(=O)[C@H](CC(N)=O)NC(=O)[C@@H](NC(=O)[C@@H](NC(=O)CNC(=O)[C@H](C)NC(=O)[C@H](C)NC(=O)[C@H](C)NC(=O)[C@H](CCC(N)=O)NC(=O)[C@H](C)NC(=O)[C@@H](NC(=O)CNC(=O)[C@H](C)NC(=O)CNC(=O)[C@H](CO)NC(=O)CNC(=O)[C@@H](N)[C@@H](C)O)[C@@H](C)CC)[C@@H](C)O)C(C)C)C(=O)O [Peptide 1236],does not dissolve in DMSO,slowly dissolves in water,,
CC[C@H](C)[C@H](NC(=O)[C@@H](NC(=O)[C@H](C)NC(=O)[C@@H](NC(=O)[C@H](CO)NC(=O)[C@H](CO)NC(=O)[C@H](CCCCN)NC(=O)[C@H](CC(C)C)NC(=O)[C@H](CC(=O)O)NC(=O)[C@H](CO)NC(=O)[C@@H](N)C(C)C)[C@@H](C)O)C(C)C)C(=O)N1CCC[C@H]1C(=O)NCC(=O)N[C@@H](Cc1ccc(O)cc1)C(=O)N1CCC[C@H]1C(=O)N[C@H](C(=O)N[C@@H](C)C(=O)NCC(=O)N[C@@H](CCC(N)=O)C(=O)N[C@H](C(=O)O)C(C)C)C(C)C [Peptide 1240] (H-VSDLKSSTAVIPGYPVAGQV-OH; N-terminus and C-terminus assumed),can also be dissolved in DMSO,water soluble,,
CC(C)C[C@H](NC(=O)[C@H](Cc1ccccc1)NC(=O)[C@@H](N)CC(N)=O)C(=O)N[C@@H](CC(C)C)C(=O)N1CCC[C@H]1C(=O)N[C@@H](CC(=O)O)C(=O)N[C@@H](C)C(=O)N[C@@H](CCC(N)=O)C(=O)N[C@@H](C)C(=O)N[C@@H](C)C(=O)N[C@@H](C)C(=O)N[C@@H](C)C(=O)NCC(=O)N[C@@H](Cc1ccccc1)C(=O)N[C@@H](C)C(=O)N[C@@H](CO)C(=O)N[C@@H](CCCCN)C(=O)O [Peptide 1241] (H-NFLLPDAQAAAAGFASK-OH; N-terminus and C-terminus assumed),only dissolve in DMSO,hydrophobic,,
CC[C@H](C)[C@H](NC(=O)[C@H](CC(N)=O)NC(=O)[C@@H](NC(=O)[C@H](CC(N)=O)NC(=O)[C@@H](N)Cc1ccc(O)cc1)[C@@H](C)CC)C(=O)N[C@@H](CO)C(=O)N[C@@H](CC(C)C)C(=O)N1CCC[C@H]1C(=O)N[C@@H](CO)C(=O)N[C@@H](Cc1ccc(O)cc1)C(=O)N[C@@H](Cc1ccc(O)cc1)C(=O)N1CCC[C@H]1C(=O)N[C@@H](CC(=O)O)C(=O)N[C@@H](CCC(N)=O)C(=O)N[C@@H](CCCCN)C(=O)N[C@@H](CO)C(=O)N[C@@H](CC(C)C)C(=O)N[C@@H](CCC(=O)O)C(=O)N[C@@H](CC(N)=O)C(=O)N[C@@H](Cc1ccc(O)cc1)C(=O)O [Peptide 1242] (H-YNINISLPSYYPDQKSLENY-OH; N-terminus and C-terminus assumed),can also be dissolved in DMSO,water soluble,,
CC[C@H](C)[C@H](NC(=O)CNC(=O)[C@H](CO)NC(=O)[C@@H](NC(=O)[C@H](Cc1ccccc1)NC(=O)[C@H](CC(N)=O)NC(=O)[C@H](Cc1c[nH]c2ccccc12)NC(=O)[C@H](CCSC)NC(=O)[C@@H](N)Cc1c[nH]cn1)[C@@H](C)CC)C(=O)N[C@@H](CCC(N)=O)C(=O)N[C@@H](Cc1ccc(O)cc1)C(=O)N[C@@H](CC(C)C)C(=O)N[C@@H](C)C(=O)NCC(=O)N[C@@H](CC(C)C)C(=O)N[C@@H](CO)C(=O)N[C@H](C(=O)N[C@@H](CC(C)C)C(=O)N1CCC[C@H]1C(=O)NCC(=O)N[C@@H](CC(N)=O)C(=O)N1CCC[C@H]1C(=O)N[C@@H](C)C(=O)O)[C@@H](C)O [Peptide 1426] (H-HMWNFISGIQYLAGLSTLPGNPA-OH; N-terminus and C-terminus assumed),only soluble in DMSO,,,
CC[C@H](C)[C@H](N)C(=O)NCC(=O)N[C@@H](CC(C)C)C(=O)NCC(=O)N[C@@H](CCCCN)C(=O)N[C@H](C(=O)N[C@@H](CC(C)C)C(=O)N[C@H](C(=O)N[C@@H](CC(=O)O)C(=O)N[C@H](C(=O)N[C@@H](CC(C)C)C(=O)N[C@@H](C)C(=O)NCC(=O)N[C@@H](Cc1ccc(O)cc1)C(=O)NCC(=O)N[C@@H](C)C(=O)NCC(=O)N[C@H](C(=O)N[C@@H](C)C(=O)NCC(=O)N[C@@H](C)C(=O)N[C@@H](CC(C)C)C(=O)N[C@H](C(=O)N[C@@H](C)C(=O)N[C@@H](Cc1ccccc1)C(=O)N[C@@H](CCCCN)C(=O)O)C(C)C)C(C)C)[C@@H](C)CC)C(C)C)C(C)C [Peptide 1798] (H-IGLGKVLVDILAGYGAGVAGALVAFK-OH; N-terminus and C-terminus assumed),,water soluble on its own,,
CC[C@H](C)[C@H](NC(=O)[C@H](CCC(N)=O)NC(=O)CNC(=O)CNC(=O)CNC(=O)[C@@H]1CCCN1C(=O)[C@H](Cc1ccccc1)NC(=O)[C@@H](N)CCCCN)C(=O)N[C@H](C(=O)NCC(=O)NCC(=O)N[C@H](C(=O)N[C@@H](Cc1ccc(O)cc1)C(=O)N[C@@H](CC(C)C)C(=O)N[C@@H](CC(C)C)C(=O)N1CCC[C@H]1C(=O)N[C@@H](CCCNC(=N)N)C(=O)N[C@@H](CCCNC(=N)N)C(=O)NCC(=O)N1CCC[C@H]1C(=O)N[C@@H](CCCNC(=N)N)C(=O)N[C@@H](CC(C)C)C(=O)NCC(=O)N[C@H](C(=O)N[C@@H](CCCNC(=N)N)C(=O)N[C@@H](C)C(=O)N[C@H](C(=O)N[C@@H](CCCNC(=N)N)C(=O)N[C@@H](CCCCN)C(=O)O)[C@@H](C)O)C(C)C)C(C)C)C(C)C [Peptide 1835] (H-KFPGGGQIVGGVYLLPRRGPRLGVRATRK-OH; N-terminus and C-terminus assumed),,water soluble,,
CC[C@H](C)[C@H](NC(=O)[C@@H](NC(=O)[C@H](Cc1ccccc1)NC(=O)[C@H](CC(N)=O)NC(=O)[C@@H](NC(=O)[C@@H](NC(=O)[C@H](CS)NC(=O)[C@@H]1CCCN1C(=O)[C@H](Cc1ccc(O)cc1)NC(=O)[C@H](Cc1c[nH]cn1)NC(=O)[C@H](Cc1c[nH]c2ccccc12)NC(=O)[C@H](CC(C)C)NC(=O)[C@H](CCCNC(=N)N)NC(=O)[C@H](Cc1ccc(O)cc1)NC(=O)[C@@H]1CCCN1C(=O)[C@H](Cc1ccc(O)cc1)NC(=O)[C@@H](N)CC(=O)O)[C@@H](C)O)C(C)C)[C@@H](C)O)C(=O)N[C@@H](Cc1ccccc1)C(=O)N[C@@H](CCCCN)C(=O)N[C@H](C(=O)O)C(C)C [Peptide 1846] (H-DYPYRLWHYPCTVNFTIFKV-OH; N-terminus and C-terminus assumed),,,,oxidation of Ipep 1846 to its dimer
